Common to all, as to assay: NCI anticancer screen, dose series, 48 h
Test [1] relates to RPMI-8226 leukemia.
Test [2] relates to HT29 colon.
For test [3], the system named is SK-MEL-5 melanoma.
For test [4], the system named is HCC-2998 colon.
The test system of test [5] is SF-295 CNS.
In test [6] the test system is SN12C renal.
Test [7] concerns SF-268 CNS.
The subject of test [8] is DU-145 prostate.
The subject of test [9] is EKVX NSCLC.
Test [10] has as its system SW-620 colon.
The subject of test [11] is MDA-N.
For test [12], the system named is OVCAR-3 ovarian.

We go through 24 compounds from PubChem BioAssay (NCI).

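Compound exposure: 48 hours, 5 concentrations, 96-well plates. TGI denotes the concentration required for complete inhibition of growth.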

As for `COc1cc2c(cc1OC)C(=O)N(NC1=NCCN1)C2=O`, the TGI in test [1], in test [2], in test [3], in test [4], in test [5] and in test [6] was over 100 µM throughout. Also, the TGI in [7], in [8], in test [9], in test [10], in test [11] and in test [12] was over 100 µM each time.

`FC1=C2CCCCCC2SC1(F)F` (configuration not stated): the TGI was 84.9 µM in test [1]; over 100 µM in [2]; over 100 µM in test [3]; over 100 µM in [4]; over 100 µM in test [5]; over 100 µM in test [7]. The TGI was over 100 µM in [8]; over 100 µM in test [9]; 28.9 µM in test [10]; over 100 µM in test [11]; over 100 µM in [12].

On to `CC(C)C(NCc1c(O)ccc2c(-c3ccccc3)cc(=O)oc12)C(=O)O` (configuration not stated), for which the TGI in test [1], in test [2], in test [3], in [4], in test [5] and in test [6] was over 100 µM each time. Besides, the TGI in test [7], in [8], in [9], in test [10], in test [11] and in test [12] was over 100 µM each time.

As for `CC1=C(C(=O)OC(C)C)C(c2ccccc2C(F)(F)F)C(C(=O)OC(CO[N+](=O)[O-])CO[N+](=O)[O-])=C(C)N1` (configuration not stated), the TGI is over 100 µM in test [1]; 26.3 µM in [2]; 11.4 µM in test [3]; over 100 µM in [4]; 21.8 µM in [5]; 32 µM in test [6]. Moreover, the TGI in test [7] is 38.7 µM; in [8], over 100 µM; in test [9] it was 70.2 µM; in test [10] it was 23.3 µM; in [11], 21.9 µM; in [12], 28.3 µM.

For the compound `O=c1ccn(C2OC(CN(O)CCC3C(CO)OC(n4ccc(=O)[nH]c4=O)C3O)C(O)C2O)c(=O)[nH]1` (configuration not stated), the TGI in test [1], in test [2], in [3], in test [4], in test [5] and in [6] was over 100 µM in each case. The TGI in test [7], in test [8], in test [9], in test [10], in test [11] and in test [12] was over 100 µM each time.

Take `Cc1nc2c(=O)n3c4c(cccc4c2o1)CCC3`: the TGI in test [1], in test [2], in test [3], in test [4], in [5] and in test [6] was over 100 µM in each case. Also, the TGI in test [7], in test [8], in test [9], in [10], in [11] and in [12] was over 100 µM each time.

`CCOC(=O)C(=O)C(CCC(=O)c1ccc2ccccc2c1O)C(=O)OCC` (configuration not stated): the TGI in test [1], in [2], in [3], in [4], in test [5] and in test [6] was over 100 µM in each case. Besides, the TGI in test [7], in test [8], in test [9], in test [10], in test [11] and in [12] was over 100 µM each time.

Regarding `COc1ccc(N=[N+]([O-])c2ccc(OC)cc2)cc1`, the TGI in test [1], in test [2], in test [3], in [4], in test [5] and in test [7] was over 100 µM in each case. Further, the TGI in test [8], in test [9], in test [11] and in [12] was over 100 µM in each case.

`COc1ccc(NC2CC(C)N(C(=O)c3ccccc3)O2)cc1` (configuration not stated): the TGI in [1], in [2], in test [3], in test [4], in test [5] and in [6] was over 10 µM each time. The TGI in test [7], in test [8], in test [9], in test [10], in [11] and in [12] was over 10 µM in each case.

In the case of `C/C(=N\Nc1nc2ccccc2s1)c1cc(C)ncn1`, the TGI was over 21 µM in [1]; over 34.6 µM in test [2]; 13 µM in [3]; 14.6 µM in test [4]; 30.9 µM in test [5]; 15.1 µM in test [6]. Further, the TGI in [7] was 3.16 µM; in [8] it was 45.1 µM; in [9], 17.1 µM; in [10], over 53.2 µM; in [11], 47.3 µM; in [12], over 25 µM.

On to `CC(=O)OCC(Br)C1(C)CCC(C(C)(C)Br)O1` (configuration not stated), for which the TGI in [1], in [2], in [3], in [4], in [5] and in test [6] was over 100 µM in each case. The TGI in test [7], in test [8], in test [9], in test [10], in [11] and in test [12] was over 100 µM throughout.

Consider `N#CCCN(CCN(CCC#N)C(=O)Nc1ccccc1)C(=O)Nc1ccccc1`, for which the TGI in test [1], in test [2], in test [3], in test [4], in test [5] and in test [6] was over 100 µM each time. Besides, the TGI in test [7] was 87.9 µM; in test [8] it was over 100 µM; in test [9] it was over 100 µM; in test [10], over 100 µM; in test [11] it was over 100 µM.

With `S=c1[nH]nc(NNc2ccccc2)n1Nc1ccccc1`, the TGI in [1], in test [2], in test [3], in test [4], in [5] and in [6] was over 100 µM throughout. Moreover, the TGI in test [7], in test [8], in [9], in test [10], in test [11] and in test [12] was over 100 µM each time.

As to `CC(=O)c1sc(=N)n(-c2c(C)cccc2C)c1C`, the TGI in test [1], in [2], in [3], in test [4], in test [6] and in test [7] was over 100 µM in each case. Moreover, the TGI in test [8], in test [9], in [10], in [11] and in [12] was over 100 µM throughout.

Take `Cn1c2ccccc2c(=O)c2[nH]c3ccccc3c21`: the TGI in [1], in [2], in test [3], in test [4], in [5] and in test [6] was over 100 µM each time. Also, the TGI in test [7] is 62.4 µM; in test [8], over 100 µM; in test [9], over 100 µM; in test [10], over 100 µM; in test [11], over 100 µM; in [12], over 100 µM.

As to `CC1=NN=C(N)NC1=CC(Sc1ccc(Cl)cc1)c1c(O)ccc2ccccc12` (configuration not stated), the TGI in test [1] was over 100 µM; in test [2] it was 48.4 µM; in [3], 21.2 µM; in test [4], 32.2 µM; in test [5] it was over 57.7 µM; in test [6], 97.3 µM. The TGI is over 71.1 µM in test [7]; over 84.6 µM in test [8]; 69 µM in test [9]; over 100 µM in [10]; over 100 µM in test [11].

As for `COC(=O)c1c(-c2ccccc2)c2sc3ccccc3n2c1N`, the TGI in test [1] was over 100 µM; in test [2], over 100 µM; in test [3], over 100 µM; in test [4] it was over 100 µM; in test [5], over 100 µM; in test [6], 96.1 µM. Besides, the TGI in test [7], in test [8], in test [9], in test [11] and in [12] was over 100 µM throughout.

For the compound `c1ccc2cc3c(cc2c1)nc1ccccn13`, the TGI in test [1], in [3], in [4], in [5], in test [6] and in test [7] was over 100 µM each time. In addition, the TGI in test [8], in test [9], in [10], in test [11] and in [12] was over 100 µM each time.

With `C=CCn1c(-c2ccc(-c3cs/c(=N\N=O)n3CC=C)cc2)cs/c1=N\N=O`, the TGI in test [2], in [3], in test [4], in test [5], in [6] and in test [7] was over 100 µM throughout. Besides, the TGI in test [8], in test [9], in test [10], in test [11] and in test [12] was over 100 µM throughout.

For `CN(C)CC1CN=C(NC(=O)Nc2ccccc2)O1` (configuration not stated), the TGI in test [1], in test [2], in [3], in test [4], in test [5] and in test [6] was over 100 µM throughout. Besides, the TGI in [7], in [8], in test [9], in [10] and in [11] was over 100 µM throughout.

For `O=c1[nH]n(Cc2ccccc2Cl)c2ccccc12`, the TGI in test [1], in test [2], in test [3], in [4], in test [6] and in test [7] was over 100 µM in each case. In addition, the TGI in test [8], in test [9], in test [10], in test [11] and in test [12] was over 100 µM in each case.

As for `CCc1cc2c(oc3cc(C)ccc32)c(=O)n1C`, the TGI in test [2], in [4], in test [5], in test [6], in test [7] and in test [8] was over 10 µM in each case. For the same compound, the TGI in [9], in test [10], in test [11] and in [12] was over 10 µM throughout.

On to `CCc1n[nH]c(=O)n1CCO`, for which the TGI in test [1], in test [2], in [3], in test [4], in test [5] and in test [6] was over 100 µM throughout. For the same compound, the TGI in test [8], in test [9], in test [10], in test [11] and in test [12] was over 100 µM each time.

With `COP(=O)(OC)/C(=C\c1cn(C(c2ccccc2)(c2ccccc2)c2ccccc2)cn1)NC(C)=O`, the TGI in test [2], in [4], in [5], in test [6], in [7] and in test [8] was over 100 µM in each case. Further, the TGI in test [9], in [10], in test [11] and in [12] was over 100 µM each time.
